Experimental data as given in patent US6207675A, “Pyrrole derivatives, their preparation and pharmaceutical compositions containing them” (Rhone-Poulenc Rorer S.A., priority 1996, dated 2001).
Values after ≈ are worked out from the molar mass of the structure shown.

Legend:
[1] = system: human cytomegalovirus AD-169 strain; assay: Antiviral activity on human cytomegalovirus, AD-169 strain (protection from virus-induced cytopathogenic effect); type: cell-based
Description: (§1) Infect. Dis., 10, 1026-1033 (1991); or in the technique described by Andrei et al., Eur. J. Clin. Microbiol. Infect. Dis., 11, 143-151 (1992), Reymen et al., Antiviral Res., 28, 343-357 (1995).
(§2) The technique used consists in the measurement of the cytopathogenic effect of the herpesvirus and of its protection by the use of products of general formula (I). The antiviral activity is assessed by measuring the IC50 (concentration necessary to inhibit 50% of the cytopathogenic effect induced by the virus).
(§3) The activity of the products according to the invention on the human cytomegalovirus has been studied on the Davis and AD-169 strains.

[2] = system: human cytomegalovirus Davis strain; assay: Antiviral activity on human cytomegalovirus, Davis strain (protection from virus-induced cytopathogenic effect); type: cell-based; details: for IC50 (concentration necessary to inhibit 50% of the cytopathogenic effect induced by the virus): Davis strain; for IC50: Human betaherpesvirus 5, Davis strain, read-out: IC50 (concentration necessary to inhibit 50% of the cytopathogenic effect induced by the virus)
Description: as §1, §2, §3

IC50 (concentration necessary to inhibit 50% of the cytopathogenic effect induced by the virus) ([1]; AD-169 strain) [µg/mL] | IC50 ([1]; Human betaherpesvirus 5, AD169, AD-169 strain, read-out: IC50 (concentration necessary to inhibit 50% of the cytopathogenic effect induced by the virus)) [µg/mL] | IC50 (concentration necessary to inhibit 50% of the cytopathogenic effect induced by the virus) [2] [µg/mL] | IC50 [2] [µg/mL] | IC50 (concentration necessary to inhibit 50% of the cytopathogenic effect induced by the virus) ([2]; listed as 7 [(R,S) form]) [µg/mL] | Structure (SMILES)
0.86 | 0.5 (≈ 1.65 µM) | 0.72 | 0.43 (≈ 1.42 µM) | – | COC1=Cc2c(C(N)=O)c(Cl)c(-c3cccnc3)n2CC1 [Example 2, 2-chloro-7-methoxy-3-pyridin-3-yl-5,6-dihydroindolizine-1-carboxamide]
– | – | – | 0.027 (≈ 0.0925 µM) | 0.015 | NC(=O)c1c(Cl)c(-c2cccnc2)n2c1C(O)CCC2 (racemic) [Example 7, (R,S)-2-chloro-8-hydroxy-3-pyridin-3-yl-5,6,7,8-tetrahydroindolizine-1-carboxamide]
– | – | – | 0.5 (≈ 1.62 µM) | – | NC(=O)c1c(Cl)c(-c2cccnc2)n2c1C=C(Cl)CC2 [Example 1, 2,7-dichloro-3-pyridin-3-yl-5,6-dihydroindolizine-1-carboxamide]
